Experimental data reported in patent US9012446B2, “Amino-oxazines and amino-dihydrothiazine compounds as beta-secretase modulators and methods of use” (Amgen Inc., priority 2010, dated 2015).
Where two headings read alike, the source gives them in different places.

Tests used:
[1] = system: Aβ40; test: In vitro BACE cell-based assay (Aβ40 sandwich ELISA, cells stably expressing APP)
Method in brief: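 APP-stably-expressing cells, grown 24 h in DMEM/10% FBS, received 10-point compound doses starting at 100 μM or 10 μM (0.1% DMSO final). Secreted Aβ40 in supernatants measured by sandwich ELISA with time-resolved europium fluorescence; IC50 from percent inhibition versus concentration.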

[2] = biological target: BACE (Homo sapiens, UniProt P56817); test: In vitro enzymatic BACE FRET assay; format: biochemical; settings: average IC50, enzyme assay; read-out: BACE 1 FRET assay
Chain of BACE (P56817 46-501, species assumed): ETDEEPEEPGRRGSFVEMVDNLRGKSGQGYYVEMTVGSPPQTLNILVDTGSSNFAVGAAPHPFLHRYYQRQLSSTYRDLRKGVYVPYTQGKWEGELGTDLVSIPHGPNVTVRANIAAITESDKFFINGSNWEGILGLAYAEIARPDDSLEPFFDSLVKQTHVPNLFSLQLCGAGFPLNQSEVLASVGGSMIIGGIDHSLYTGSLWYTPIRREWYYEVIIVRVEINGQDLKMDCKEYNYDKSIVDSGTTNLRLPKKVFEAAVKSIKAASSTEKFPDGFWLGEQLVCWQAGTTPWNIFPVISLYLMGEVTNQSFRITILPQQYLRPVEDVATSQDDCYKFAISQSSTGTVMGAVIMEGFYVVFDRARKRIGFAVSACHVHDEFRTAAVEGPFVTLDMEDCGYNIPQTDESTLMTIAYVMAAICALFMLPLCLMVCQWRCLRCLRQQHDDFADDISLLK
Method in brief: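 BACE (0.2 nM) preincubated 1 h with serially diluted inhibitors in 0.05 M acetate pH 4.2, 10% DMSO, 100 uM genapol. FRET peptide substrate (50 nM) added, 1 h incubation, then stopped with Tris to neutral pH. Fluorescence from cleavage read at […].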

[3] = Homo sapiens, HEK293, average IC50, cell assay, HEK cells
[4] = Homo sapiens, HEK293, average IC50, read-out: HEK cell assay

Compound | IC50 [1, 3] | IC50 [2] | IC50 [1, 4] | IC50 ([1]; average IC50, read-out: HEK cell assay)
CC1(COc2cc(F)c3c(c2)[C@]2(CCOC(N)=N2)c2cc(-c4cccnc4)ccc2O3)COC1 [compound 160] | 5.9 nM | 6.3 nM | – | –
CC1(COc2cc(F)c3c(c2)[C@@]2(CCOC(N)=N2)c2cc(-c4cccnc4)ccc2O3)COC1 [compound 161] | 333 nM | 2780 nM | – | –
NC1=N[C@]2(CCO1)c1cc(-c3cccnc3F)ccc1Oc1c(F)cc(N3CCC(F)(F)CC3)cc12 [compound 162] | – | 958 nM | 3020 nM | –
NC1=N[C@]2(CCO1)c1cc(-c3cccnc3F)ccc1Oc1c(F)cc(-c3ccncc3)cc12 [compound 165] | – | 553 nM | 248 nM | –
NC1=N[C@]2(CCO1)c1cc(-c3cccnc3F)ccc1Oc1c(F)cc(-c3cccnc3)cc12 [compound 167] | – | 147 nM | 110 nM | –
NC1=N[C@]2(CCO1)c1cc(-c3cccnc3F)ccc1Oc1c(F)cc(C3=CCOCC3)cc12 [compound 169] | – | 3070 nM | 3400 nM | –
CC1(COc2cc(F)c3c(c2)[C@@]2(CCOC(N)=N2)c2cc(-c4cccnc4F)ccc2O3)COC1 [compound 171] | – | 525 nM | 245 nM | –
NC1=N[C@]2(CCO1)c1cc(-c3cccnc3F)ccc1Oc1c(F)cc(C3=CCCOC3)cc12 [compound 172] | – | 1190 nM | 1070 nM | –
COc1cc(F)c2c(c1)[C@]1(CCOC(N)=N1)c1cc(-c3cccnc3F)ccc1O2 [compound 175, (4S)-4′-fluoro-7′-(2-fluoro-3-pyridinyl)-2′-methoxy-5,6-dihydrospiro[1,3-oxazine-4,9′-xanthen]-2-amine] | – | 38.3 nM | 93 nM | –
NC1=N[C@]2(CCO1)c1cc(-c3cccnc3F)ccc1Oc1c(F)cc(N3CC[C@@H](F)C3)cc12 [compound 177] | – | 892 nM | 2530 nM | –
NC1=N[C@]2(CCO1)c1cc(-c3cccnc3F)ccc1Oc1c(F)cc(N3CCOCC3)cc12 [compound 179] | – | 5190 nM | 2820 nM | –
CC1(COc2cc(F)c3c(c2)[C@]2(CCOC(N)=N2)c2cc(-c4cccnc4F)ccc2O3)COC1 [compound 180] | – | 2.3 nM | 3.2 nM | –
CC(C)(F)COc1cc(F)c2c(c1)[C@@]1(CCOC(N)=N1)c1cc(-c3cccnc3F)ccc1O2 [compound 181] | – | 1370 nM | 1160 nM | –
NC1=N[C@]2(CCO1)c1cc(-c3cccnc3F)ccc1Oc1c(F)cc(-c3ccnc(F)c3)cc12 [compound 183] | – | 7 nM | – | 15.4 nM
COc1cc(F)c2c(c1)[C@]1(CCSC(N)=N1)c1cc(-c3cccnc3F)ccc1O2 [compound 187] | – | 29.9 nM | 159 nM | –
NC1=N[C@@]2(CCS1)c1cc(-c3cccnc3F)ccc1Oc1cnc(-c3ccnc(F)c3)cc12 [compound 188] | – | 2.6 nM | 11.1 nM | –
NC1=N[C@]2(CCS1)c1cc(-c3cccnc3F)ccc1Oc1cnc(-c3ccnc(F)c3)cc12 [compound 189] | – | 2390 nM | 3280 nM | –
NC1=N[C@]2(CCS1)c1cc(-c3cccnc3F)ccc1Oc1c(F)cc(C3=CCCOC3)cc12 [compound 190] | – | 462 nM | 434 nM | –
NC1=N[C@]2(CCS1)c1cc(-c3cccnc3F)ccc1Oc1cnc(Cl)cc12 [compound 192] | – | 3350 nM | 5610 nM | –
NC1=N[C@@]2(CCS1)c1cc(-c3cccnc3F)ccc1Oc1cnc(C3=CCOCC3)cc12 [compound 193] | – | 3.3 nM | 4.7 nM | –
NC1=N[C@]2(CCS1)c1cc(-c3cccnc3F)ccc1Oc1cnc(C3=CCOCC3)cc12 [compound 194] | – | 473 nM | 937 nM | –
NC1=N[C@]2(CCS1)c1cc(-c3cccnc3F)ccc1Oc1cnc(C3=CCCOC3)cc12 [compound 195] | – | 922 nM | 1970 nM | –
NC1=N[C@]2(CCS1)c1cc(-c3cccnc3F)ccc1Oc1c(F)cc(C3=CCOCC3)cc12 [compound 196] | – | 2530 nM | 83.1 nM | –
CC1(COc2cc(F)c3c(c2)[C@]2(CCSC(N)=N2)c2cc(-c4cccnc4F)ccc2O3)COC1 [compound 197] | – | 2.5 nM | 4.8 nM | –
